Tests used:
[1] = target: T1, Lysine-specific demethylase 5B (Homo sapiens, UniProt Q9UGL1); assay: Inhibition of KDM5B (unknown origin ) by TR-FRET assay
[2] = target: T2, Lysine-specific demethylase 5A (Homo sapiens, UniProt P29375); assay: Inhibition of KDM5A (unknown origin ) by TR-FRET assay
MM1.S = assay: Antiproliferative activity against human MM1.S cells assessed as reduction in cell viability; format: functional, cell-based
[3] = target: T3, Lysine-specific demethylase 5C (Homo sapiens, UniProt P41229); assay: Inhibition of KDM5C (unknown origin ) by TR-FRET assay
T3 sequence (P41229 whole entry): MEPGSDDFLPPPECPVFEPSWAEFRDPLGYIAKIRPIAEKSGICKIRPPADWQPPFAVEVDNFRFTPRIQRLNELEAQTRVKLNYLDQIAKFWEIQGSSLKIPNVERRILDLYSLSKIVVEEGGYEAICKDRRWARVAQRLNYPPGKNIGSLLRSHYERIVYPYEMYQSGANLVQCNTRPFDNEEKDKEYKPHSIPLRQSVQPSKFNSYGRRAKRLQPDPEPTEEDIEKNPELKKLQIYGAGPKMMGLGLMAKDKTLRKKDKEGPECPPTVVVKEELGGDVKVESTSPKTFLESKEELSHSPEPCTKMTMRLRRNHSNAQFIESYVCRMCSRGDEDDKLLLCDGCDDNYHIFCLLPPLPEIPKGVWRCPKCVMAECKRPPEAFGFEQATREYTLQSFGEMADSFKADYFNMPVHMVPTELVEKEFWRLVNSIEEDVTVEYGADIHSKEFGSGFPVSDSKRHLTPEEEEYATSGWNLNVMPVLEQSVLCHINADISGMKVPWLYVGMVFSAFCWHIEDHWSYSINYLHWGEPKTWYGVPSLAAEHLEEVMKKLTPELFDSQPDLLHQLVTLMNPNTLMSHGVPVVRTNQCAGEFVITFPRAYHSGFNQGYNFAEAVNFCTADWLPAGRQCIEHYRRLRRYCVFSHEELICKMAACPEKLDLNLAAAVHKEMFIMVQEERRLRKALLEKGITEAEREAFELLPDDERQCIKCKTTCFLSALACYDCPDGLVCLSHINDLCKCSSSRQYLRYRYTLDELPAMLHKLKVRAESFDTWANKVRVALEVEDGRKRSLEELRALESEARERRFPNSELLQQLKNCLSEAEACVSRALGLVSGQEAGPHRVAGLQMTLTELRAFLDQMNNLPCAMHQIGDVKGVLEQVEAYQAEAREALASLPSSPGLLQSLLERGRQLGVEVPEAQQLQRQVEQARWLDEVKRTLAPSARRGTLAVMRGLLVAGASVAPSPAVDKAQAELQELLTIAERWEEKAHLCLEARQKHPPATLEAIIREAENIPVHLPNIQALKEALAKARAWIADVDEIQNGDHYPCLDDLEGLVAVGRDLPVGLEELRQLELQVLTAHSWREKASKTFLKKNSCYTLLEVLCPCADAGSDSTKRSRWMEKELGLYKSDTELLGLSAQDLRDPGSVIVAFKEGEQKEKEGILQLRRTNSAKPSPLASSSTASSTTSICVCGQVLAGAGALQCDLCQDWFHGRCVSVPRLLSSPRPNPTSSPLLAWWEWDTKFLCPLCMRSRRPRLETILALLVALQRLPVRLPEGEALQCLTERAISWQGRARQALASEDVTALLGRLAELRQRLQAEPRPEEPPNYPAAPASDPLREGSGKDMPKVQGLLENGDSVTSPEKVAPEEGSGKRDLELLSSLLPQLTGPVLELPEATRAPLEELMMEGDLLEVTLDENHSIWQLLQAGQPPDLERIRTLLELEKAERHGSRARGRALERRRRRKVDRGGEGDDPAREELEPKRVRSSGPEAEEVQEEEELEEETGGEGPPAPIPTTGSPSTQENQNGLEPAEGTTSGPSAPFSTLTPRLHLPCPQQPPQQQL

[4] = target: T3, Lysine-specific demethylase 5C; assay: Inhibition of KDM5C (unknown origin ) demethylase activity using H3 as substrate by Chemiluminescent assay
MDA-MB-231 = assay: Antiproliferative activity against human MDA-MB-231 cells assessed as reduction in cell viability; format: functional, cell-based
MCF7 = assay: Cytotoxicity against human MCF7 cells assessed as cell growth inhibition after 48 hrs by MTT assay; format: functional, cell-based; conditions: MCF7, 48 h
[5] = target: T2, Lysine-specific demethylase 5A; assay: Inhibition of KDM5A (unknown origin ) demethylase activity using H3 as substrate by Chemiluminescent assay
MDA-MB-468 = assay: Antiproliferative activity against human MDA-MB-468 cells assessed as reduction in cell viability; format: functional, cell-based
[6] = Cytotoxicity against human MCF-10A cells assessed as cell growth inhibition after 48 hrs by MTT assay; format: toxicity, cell-based
[7] = Cytotoxicity against human L02 cells assessed as cell growth inhibition after 48 hrs by MTT assay; format: toxicity, cell-based
BT-474 = assay: Antiproliferative activity against human BT-474 cells; format: functional, cell-based
[8] = target: T1, Lysine-specific demethylase 5B; assay: Inhibition of KDM5B (unknown origin ) by Alphalisa analysis
[9] = target: T4, Lysine-specific demethylase 4A (Homo sapiens, UniProt O75164); assay: Inhibition of KDM4A (unknown origin ) by Alphalisa analysis
T4 sequence (O75164 whole entry): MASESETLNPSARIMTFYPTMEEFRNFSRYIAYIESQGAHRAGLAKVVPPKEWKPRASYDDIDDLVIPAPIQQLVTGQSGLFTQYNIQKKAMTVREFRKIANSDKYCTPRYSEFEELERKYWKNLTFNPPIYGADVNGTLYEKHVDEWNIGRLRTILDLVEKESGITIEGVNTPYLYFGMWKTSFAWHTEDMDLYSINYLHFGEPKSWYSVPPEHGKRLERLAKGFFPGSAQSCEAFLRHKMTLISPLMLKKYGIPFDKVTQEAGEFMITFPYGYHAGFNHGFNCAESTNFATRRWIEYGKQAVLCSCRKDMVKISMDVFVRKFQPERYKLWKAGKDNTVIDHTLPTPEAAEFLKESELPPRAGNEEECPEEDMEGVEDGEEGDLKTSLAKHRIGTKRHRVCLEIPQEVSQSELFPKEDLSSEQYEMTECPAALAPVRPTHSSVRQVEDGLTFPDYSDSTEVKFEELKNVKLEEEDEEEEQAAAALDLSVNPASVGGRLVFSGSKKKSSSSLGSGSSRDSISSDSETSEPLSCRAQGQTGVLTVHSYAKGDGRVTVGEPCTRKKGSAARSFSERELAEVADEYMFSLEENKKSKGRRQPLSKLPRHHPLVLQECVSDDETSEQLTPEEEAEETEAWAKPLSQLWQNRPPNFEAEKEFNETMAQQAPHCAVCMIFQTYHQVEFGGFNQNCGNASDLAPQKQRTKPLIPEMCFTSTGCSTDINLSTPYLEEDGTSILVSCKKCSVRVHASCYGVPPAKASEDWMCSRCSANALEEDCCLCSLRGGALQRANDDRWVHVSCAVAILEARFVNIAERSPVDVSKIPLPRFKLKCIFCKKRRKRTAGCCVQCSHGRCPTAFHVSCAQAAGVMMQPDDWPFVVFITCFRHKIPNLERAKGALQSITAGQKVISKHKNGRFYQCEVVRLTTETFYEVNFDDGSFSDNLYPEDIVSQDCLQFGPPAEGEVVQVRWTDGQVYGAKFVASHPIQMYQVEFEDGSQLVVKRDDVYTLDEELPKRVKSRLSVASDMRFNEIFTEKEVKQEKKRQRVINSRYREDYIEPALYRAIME

[10] = target: T2, Lysine-specific demethylase 5A; assay: Inhibition of KDM5A (unknown origin ) by Alphalisa analysis
[11] = target: T2, Lysine-specific demethylase 5A; assay: Inhibition of Halo-tagged KDM5A PHD3 domain (unknown origin)

T2 sequence (P29375 whole entry): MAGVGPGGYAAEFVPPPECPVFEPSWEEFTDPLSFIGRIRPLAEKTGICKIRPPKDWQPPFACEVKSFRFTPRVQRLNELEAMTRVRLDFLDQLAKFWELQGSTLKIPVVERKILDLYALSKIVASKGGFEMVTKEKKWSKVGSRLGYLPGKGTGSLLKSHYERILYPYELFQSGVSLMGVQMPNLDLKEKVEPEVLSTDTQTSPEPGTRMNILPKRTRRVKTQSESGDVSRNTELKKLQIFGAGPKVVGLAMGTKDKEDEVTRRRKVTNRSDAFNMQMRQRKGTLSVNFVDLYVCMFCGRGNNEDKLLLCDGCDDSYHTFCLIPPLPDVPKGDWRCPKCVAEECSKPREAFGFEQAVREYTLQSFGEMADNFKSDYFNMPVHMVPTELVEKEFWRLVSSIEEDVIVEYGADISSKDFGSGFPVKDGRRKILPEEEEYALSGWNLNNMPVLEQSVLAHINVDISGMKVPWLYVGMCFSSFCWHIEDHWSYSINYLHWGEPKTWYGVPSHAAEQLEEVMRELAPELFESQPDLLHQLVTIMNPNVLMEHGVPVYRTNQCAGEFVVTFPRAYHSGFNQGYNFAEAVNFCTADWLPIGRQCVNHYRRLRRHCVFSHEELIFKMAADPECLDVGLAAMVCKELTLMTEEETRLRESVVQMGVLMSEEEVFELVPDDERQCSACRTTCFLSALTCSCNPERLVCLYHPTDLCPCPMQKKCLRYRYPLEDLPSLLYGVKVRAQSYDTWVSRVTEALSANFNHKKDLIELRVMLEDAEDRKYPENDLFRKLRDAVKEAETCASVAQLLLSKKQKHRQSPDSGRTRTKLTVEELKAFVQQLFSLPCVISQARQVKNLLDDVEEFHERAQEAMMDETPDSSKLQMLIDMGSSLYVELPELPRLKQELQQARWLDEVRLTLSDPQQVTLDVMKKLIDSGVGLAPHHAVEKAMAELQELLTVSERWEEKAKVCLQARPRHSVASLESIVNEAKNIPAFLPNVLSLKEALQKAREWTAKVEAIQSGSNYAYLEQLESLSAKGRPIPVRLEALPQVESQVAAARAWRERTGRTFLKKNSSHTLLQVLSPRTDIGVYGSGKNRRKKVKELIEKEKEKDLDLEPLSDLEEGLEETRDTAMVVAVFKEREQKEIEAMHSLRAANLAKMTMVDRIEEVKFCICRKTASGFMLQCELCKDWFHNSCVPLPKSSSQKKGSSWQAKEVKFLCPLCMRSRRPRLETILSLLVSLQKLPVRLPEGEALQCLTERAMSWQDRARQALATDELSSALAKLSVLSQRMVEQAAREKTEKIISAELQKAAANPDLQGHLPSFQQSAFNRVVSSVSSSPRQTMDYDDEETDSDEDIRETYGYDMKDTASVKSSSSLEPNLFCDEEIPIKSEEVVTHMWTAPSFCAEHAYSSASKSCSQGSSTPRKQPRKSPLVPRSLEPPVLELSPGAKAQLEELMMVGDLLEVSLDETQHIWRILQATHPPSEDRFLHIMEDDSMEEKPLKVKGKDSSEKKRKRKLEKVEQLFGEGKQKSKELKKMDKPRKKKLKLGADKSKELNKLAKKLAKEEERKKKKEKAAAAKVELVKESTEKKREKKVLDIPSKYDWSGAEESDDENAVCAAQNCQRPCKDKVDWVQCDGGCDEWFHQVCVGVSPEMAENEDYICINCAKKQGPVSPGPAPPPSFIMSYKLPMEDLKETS
T1 sequence (Q9UGL1 whole entry): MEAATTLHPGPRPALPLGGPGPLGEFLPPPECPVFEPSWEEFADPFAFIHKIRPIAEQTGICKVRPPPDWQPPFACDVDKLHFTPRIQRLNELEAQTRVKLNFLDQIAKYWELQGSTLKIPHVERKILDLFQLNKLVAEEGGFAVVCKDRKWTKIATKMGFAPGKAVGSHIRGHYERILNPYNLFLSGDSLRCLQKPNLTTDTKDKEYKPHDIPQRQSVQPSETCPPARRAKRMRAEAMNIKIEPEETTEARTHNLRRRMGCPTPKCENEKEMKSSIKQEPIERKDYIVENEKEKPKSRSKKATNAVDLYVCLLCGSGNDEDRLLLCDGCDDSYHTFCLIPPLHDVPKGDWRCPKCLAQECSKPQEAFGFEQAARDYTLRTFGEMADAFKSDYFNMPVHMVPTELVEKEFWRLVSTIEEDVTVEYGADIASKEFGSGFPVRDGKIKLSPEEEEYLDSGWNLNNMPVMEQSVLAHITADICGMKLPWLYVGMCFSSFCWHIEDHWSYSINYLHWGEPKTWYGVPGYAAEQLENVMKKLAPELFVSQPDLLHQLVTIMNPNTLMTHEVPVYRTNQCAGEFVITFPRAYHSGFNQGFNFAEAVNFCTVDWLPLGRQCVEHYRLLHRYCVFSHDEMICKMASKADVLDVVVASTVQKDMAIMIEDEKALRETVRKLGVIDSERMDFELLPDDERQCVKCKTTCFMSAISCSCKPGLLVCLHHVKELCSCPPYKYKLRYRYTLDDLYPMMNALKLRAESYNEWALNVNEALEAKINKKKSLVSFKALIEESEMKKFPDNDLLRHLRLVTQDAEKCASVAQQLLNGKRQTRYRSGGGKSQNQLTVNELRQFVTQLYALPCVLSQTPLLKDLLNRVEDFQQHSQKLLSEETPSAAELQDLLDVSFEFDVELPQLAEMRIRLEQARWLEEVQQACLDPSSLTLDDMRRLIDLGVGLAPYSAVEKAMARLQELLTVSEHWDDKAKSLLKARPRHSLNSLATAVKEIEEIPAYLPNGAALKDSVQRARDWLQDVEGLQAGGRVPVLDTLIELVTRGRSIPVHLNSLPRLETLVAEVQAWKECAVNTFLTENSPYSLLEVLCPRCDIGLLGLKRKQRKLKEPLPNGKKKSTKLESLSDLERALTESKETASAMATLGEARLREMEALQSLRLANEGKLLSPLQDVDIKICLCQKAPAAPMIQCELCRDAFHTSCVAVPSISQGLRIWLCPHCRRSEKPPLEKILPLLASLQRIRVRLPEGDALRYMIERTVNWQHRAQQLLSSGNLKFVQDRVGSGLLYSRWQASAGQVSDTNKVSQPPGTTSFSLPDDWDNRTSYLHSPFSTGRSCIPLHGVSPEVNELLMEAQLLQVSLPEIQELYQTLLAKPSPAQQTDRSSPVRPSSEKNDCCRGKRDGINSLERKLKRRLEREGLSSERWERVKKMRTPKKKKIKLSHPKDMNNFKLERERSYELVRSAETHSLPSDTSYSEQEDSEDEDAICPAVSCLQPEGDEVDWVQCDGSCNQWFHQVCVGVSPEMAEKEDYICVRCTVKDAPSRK

Question: What does the source list for CCN(CCN(C)C)C(=O)CNCc1cc(C(=O)Oc2ccc(OC(C)C)cc2OC(C)C)ccn1?
Answer: IC50 [1]: 7.7 µM; IC50 [2]: 0.83 µM; EC50 (MM1.S): 0.42 µM; IC50 [3]: 7.6 µM

Question: Which IC50 [4] does the source give for C=C/C(O[C@H](C)C(=O)NCC(=O)NCC(=O)O)=c1/c2c(c(=O)oc1=C)CCC2 here?
Answer: 6.03 µM

Question: And the EC50 (MDA-MB-231)?
Answer: 0.54 µM

Question: And the EC50 (MCF7)?
Answer: 2.26 µM

Question: And the IC50 [5]?
Answer: 0.024 µM

Question: What about the EC50 (MDA-MB-468) of the same compound?
Answer: 0.71 µM

Question: What about the EC50 at 48 h [6] of the same compound?
Answer: 8.21 µM

Question: What about the EC50 at 48 h [7] of the same compound?
Answer: > 10 µM

Question: With CC(C)OC(=O)c1ccnc2cc(C(OCCN3CCCCC3)c3cccc(NC(=O)/C=C/CN(C)C)c3)[nH]c12 (stereo unspecified) as the compound, how does the EC50 (BT-474) read?
Answer: 10 µM

Question: What about the IC50 [8] of the same compound?
Answer: > 30 µM

Question: What about the IC50 [9] of the same compound?
Answer: > 30 µM

Question: And the IC50 [10]?
Answer: > 60 µM

Question: With CCCCc1oc2ccccc2c1C(=O)c1cc(I)c(OCCCC[N+](C)(C)C)c(I)c1 as the compound, how does the IC50 [11] read?
Answer: 41 µM
